# Measured values taken from patent US4201866A, “O-Hemi-succinate of propranolol” (American Home Products Corporation, priority 1977, dated 1980).
# Where a name gives a salt, the structure may show the parent alone.
# Assay: Oral administration of the compound of Example 6; plasma levels (Example 7)
# Format: in vivo
# Conditions: beagle dogs
# Method: In this experiment, four beagle dogs were given an 80 mg. oral dose of propranolol HCl or an equivalent dose of the o-hemi-succinate. The animals were divided into two groups of two, each group receiving the drugs according to a crossover design. The crossover experiment was repeated twice. A period of at least one week elapsed between each dosing day. Blood samples were obtained at regular intervals after dosing a plasma was analyzed for free propranolol concentrations.
# The compound of Example 6 was orally administered to beagle dogs in a similar manner as Example 2. Plasma levels of the compound of Example 6 were twice as high as those obtained after an equivalent dose of propranol hydrochloride.
smiles,measurement,value
"CCOC(=O)CCC(=O)OC(CNC(C)C)COc1cccc2ccccc12 (stereo not shown) [Example 6, Butanedioic acid-1-[(2-(1-methylethyl)amino] -1-[(1-naphtalenyloxy)methyl]diethylether hydrochloride]",Plasma levels compared with equivalent dose of propranolol hydrochloride,twice as high
